Data taken from patent publication US10889569B2, “Condensed ring group azacyclobutyl triazole derivative, preparation method therefor and use thereof in medicine” (Jiangsu Hengrui Medicine Co., Ltd., priority 2016, dated 2021).

What was measured:
[1] = Brain permeability of rats (Kp-unbound); assay type: in vivo; conditions: both sexes, rat, not told, po; SD rats, 10 mg/kg intragastrically, 0.5 h after administration; read-out: Kp-unbound (blood-brain permeability index)
Experimental: The activity of the compounds of the present invention on the brain permeability of rats was determined by the following experimental method:
Four SD rats (half male and half female) were maintained in a 12 hours light/12 hours dark cycle, in a constant temperature of 24±3° C. and a humidity of 50-60%, and free access to food and water. The compounds were administered intragastrically to the rats after fasting overnight. The administration dosage was 10 mg/kg. The administration group was sacrificed after blood collection at 0.5 h to 2 h after administration (blood volume: 0.5 ml). The blood sample was stored in heparinized tubes, and centrifuged for 10 minutes at 3500 rpm to separate the plasma, which was marked as plasma 1 and stored at […]. The animal was decapitated after sacrificing, and the brain tissue was collected. The residual blood in the brain tissue was sucked with a filter paper, which was marked as brain tissue 1, and stored at 0° C. ten minutes later. Another three animals were treated by the same method as that of administration group to obtain blank plasma and brain tissue 2.
The drug compounds were diluted to 50 mM with DMSO to obtain a stock solution I. An appropriate amount of stock solution I was diluted with methanol to obtain a diluted stock solution II (200 μM). 10 μl of stock solution II was moved to a 1.5 ml Eppendorf tube, and then added with 990 μl of blank plasma, and mixed well to obtain 2 μM of plasma sample 2 (concentration of DMSO≤0.2%), which was used for the determination of plasma protein binding rate at this concentration. […]
The equilibrium dialysis tube of RED Device Inserts was inserted into a 96-well plate. […] The chromatographic peak area ratios of the total drug (plasma chamber) and the free drug (buffer chamber) to the internal standard were determined directly by the LC/MS/MS method established above respectively, and the free percent (fu plasma %) was calculated.
Brain tissue protein binding equilibrium dialysis process: the blank brain tissue 2 was formulated into a blank brain homogenate with PBS (pH 7.4) according to a dilution factor of 11, and added with compound to formulate a 2 μM brain homogenate. Other procedures were the same with that of plasma protein binding, the chromatographic peak area ratios of the total drug (brain homo chamber) and the free drug (buffer chamber) to the internal standard were determined by the established LC/MS/MS method respectively, and the free percent (fu brain hom %) was calculated.
1) The drug concentrations in plasma 1 and brain tissue 1 of rats 0.5 h after administration were determined by the established LC/MS/MS method respectively, which were the total concentration (Ctotal, p and Ctotal, b); […]

[2] = biological target: human OTR (Homo sapiens, UniProt P30559); assay: Inhibition activity on human OTR (Fluo-4 calcium assay, HEK293/human OTR stably transfected cells); assay type: cell-based; conditions: oxytocin 3 nM
Summary of the method: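 HEK293 cells stably expressing human OTR, loaded with Fluo-4 for 30 min at 37 °C, were preincubated 10 min at room temperature with compound (stocks 10^1–10^6 nM). Oxytocin (3 nM as added) then triggered calcium signal, read immediately at 494/516; IC50 fitted from fluorescence versus concentration.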

[3] = Pharmacokinetics assay in rats after intragastrical administration; assay type: in vivo, SD rats; conditions: Sprague-Dawley, rat, plasma, po, 30 mg/kg, intragastric, male rats
Experimental: Male SD rats were used as test animals. The drug concentration in plasma at different time points was determined by LC/MS/MS method after intragastrical administration of the compounds of Examples 2, 17, 34, 37, 38, 39 and 43 to rats. The pharmacokinetic behavior of the compounds of the present invention was studied and evaluated in rats.
Twenty-one healthy adult male Sprague-Dawley (SD) rats were purchased from Shanghai Jiesijie Laboratory Animal Co., LTD, with Certificate No.: SCXK (Shanghai) 2013-0006, and equally divided into 7 groups (3 rats per group).
A certain amount of the test compound was weighed, and added with 2.5% by volume of DMSO and 97.5% by volume of 10% solutol HS-15 to formulate a […] colorless, clear and transparent solution.
After an overnight fast, SD rats were administered intragastrically the test compounds at an administration dosage of 30.0 mg/kg and an administration volume of 10.0 mL/kg.
The rats were intragastrically administered the compounds of Examples 2, 17, 34, 37, 38, 39 and 43. 0.2 mL of blood was taken from the orbital sinus before administration and at 0.5, 1.0, 2.0, 4.0, 6.0, 8.0, 11.0 and 24.0 hours after administration. The samples were stored in heparinized tubes, and centrifuged for 10 minutes at 4° C. at 3500 rpm to separate the plasma. The plasma samples were stored at −20° C. The rats were fed 2 hours after administration.
The content of the test compounds in the plasma of rats after intragastrical administration of the test compounds at different concentrations was determined: 50 μL of rat plasma at each time after administration was taken, added with 50 μL of the internal standard solution of camptothecin (100 ng/mL) and 150 μL of acetonitrile, vortex-mixed for 5 minutes, and centrifuged for 10 minutes (4000 rpm). 3 μL of the supernatant was taken from the plasma samples for LC/MS/MS analysis.

[4] = biological target: oxytocin receptor (Rattus norvegicus (Rat), UniProt P70536); conditions: intraventricular and intrathecal injection; cited from earlier work
[5] = biological target: T1, oxytocin receptor (Homo sapiens (Human), UniProt P30559); conditions: cited from earlier work
[6] = biological target: T1, oxytocin receptor; conditions: orally 400 mg or 800 mg, patient with prospermia, phase II; cited from earlier work

T1 sequence (P30559 whole entry): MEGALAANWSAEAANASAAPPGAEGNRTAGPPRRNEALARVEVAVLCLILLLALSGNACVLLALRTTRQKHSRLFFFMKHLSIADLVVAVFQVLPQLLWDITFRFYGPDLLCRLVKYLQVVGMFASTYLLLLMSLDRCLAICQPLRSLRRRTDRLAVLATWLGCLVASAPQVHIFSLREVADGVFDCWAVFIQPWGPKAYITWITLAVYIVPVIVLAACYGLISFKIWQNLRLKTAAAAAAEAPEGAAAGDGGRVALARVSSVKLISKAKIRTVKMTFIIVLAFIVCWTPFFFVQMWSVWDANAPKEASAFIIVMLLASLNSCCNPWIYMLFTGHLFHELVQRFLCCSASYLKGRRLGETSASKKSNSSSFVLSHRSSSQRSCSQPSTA
Chain of oxytocin receptor (Rattus norvegicus (Rat), UniProt P70536) (P70536 whole entry): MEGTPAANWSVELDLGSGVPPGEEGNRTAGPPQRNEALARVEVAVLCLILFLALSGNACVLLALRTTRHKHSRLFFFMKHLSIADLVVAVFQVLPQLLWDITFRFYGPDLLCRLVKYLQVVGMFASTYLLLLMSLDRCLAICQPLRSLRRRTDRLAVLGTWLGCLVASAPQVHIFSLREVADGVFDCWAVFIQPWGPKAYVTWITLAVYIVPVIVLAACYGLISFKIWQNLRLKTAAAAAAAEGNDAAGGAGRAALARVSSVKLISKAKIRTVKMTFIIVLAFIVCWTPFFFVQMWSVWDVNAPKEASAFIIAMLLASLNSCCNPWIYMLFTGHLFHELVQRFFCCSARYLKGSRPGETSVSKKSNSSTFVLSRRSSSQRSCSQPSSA

Question: With `COCc1nnc(N2CC(Oc3ccc(F)cc3Cl)C2)n1-c1ccc(OC)nc1` [5-(3-(3-(2-Chloro-4-fluorophenoxy)azetidin-1-yl)-5-(methoxymethyl)-4H-1,2,4-triazol-4-yl)-2-methoxypyridine, reference compound] as the compound, how does the Kp at 0.5 h [1] read?
Answer: 0.064

Question: Which IC50 [2] does the source give for `COc1ccc(-n2c(COC(F)F)nnc2N2CC(c3cccc4cc(F)ccc34)C2)cn1` [Example 38, 5-(3-((Difluoromethoxy)methyl)-5-(3-(6-fluoronaphthalen-1-yl)azetidin-1-yl)-4H-1,2,4-triazol-4-yl)-2-methoxypyridine] here?
Answer: 2 nM

Question: What about the Kp at 0.5 h [1] of the same compound?
Answer: 0.175

Question: What about the Vd/F ([3]; read-out: Apparent distribution volume Vz/F) of the same compound?
Answer: 27.8 ± 22.8 L/kg

Question: What about the AUC ([3]; read-out: Area under curve AUC) of the same compound?
Answer: 5.63 ± 3.01 µg·h/mL

Question: What about the CL/F ([3]; read-out: Clearance CLz/F) of the same compound?
Answer: 6.24 ± 2.64 L/h/kg

Question: What about the half-life ([3]; read-out: Half-life T1/2 (converted)) of the same compound?
Answer: 2.83 ± 1.9 h

Question: What about the Cmax ([3]; read-out: Plasma concentration Cmax) of the same compound?
Answer: 1.05 ± 0.27 µg/mL

Question: And the MRT ([3]; read-out: Residence time MRT)?
Answer: 4.19 ± 1.25 h

Question: For `CC[C@H](C)[C@@H]1C(=O)N[C@H](C2Cc3ccccc3C2)C(=O)N1[C@@H](C(=O)N1CCOCC1)c1ccc(C)nc1C` [GSK557296], which “Ejaculation behavior of rats” value [4] is on record?
Answer: can effectively inhibit the ejaculation behavior of rats only when being administered at specific central sites

Question: What about the “Efficacy after oral administration in phase II clinical trials” value [5] of the same compound?
Answer: did not show corresponding efficacy

Question: For `COCc1nnc(N2CC(Oc3ccc(F)cc3Cl)C2)n1-c1ccc(OC)nc1` [IX-01], which Vaginal ejaculation latency [6] is on record?
Answer: can significantly prolong the vaginal ejaculation latency of the patient
